Converted amounts (≈) assume the structure as drawn. Like-named read-outs stand apart in the source and are kept apart here.
How the values were obtained:
[1] = EYPC vesicle leakage assay; type: biochemical; conditions: 10 μg/mL of compound; 10 mM TRIS, 107 mM NaCl, pH 7.4
Procedure: 5(6)-carboxyfluorescein (CF) was purchased from Sigma. EYPC, EYPG, and a Mini-Extruder were purchased from Avanti Polar Lipids. Egg PC or Egg PG thin lipid layers were prepared by evaporating a solution of 100 mg of EYPC or EYPG in 4 mL of MeOH/CHCl3 (1:1) on a rotary evaporator at room temperature and then dried in vacuo overnight. […] Extravesicular components were removed by gel filtration (Sephadex G-50) with 10 mM TRIS, 107 mM NaCl, pH 7.4 buffer. Final conditions: ∼2.5 mM PC or PG; inside: 50 mM CF, 10 mM TRIS, 10 mM NaCl, pH 7.4 buffer; outside: 10 mM TRIS, 107 mM NaCl, pH 7.4. […] The CF efflux was monitored at λem 517 nm (λex 492 nm) as a function of time after addition of the desired volume of peptide from 2 mg/mL stock in mQ water at t = 45 s, 10 and 50 μg/mL were monitored for both EYPC and EYPG. […] Fluorescence intensities were then normalized to the maximal emission intensity using I(t) = (It – I0)/(I∞ – I0) where I0 = It at peptide addition, I∞ = It at saturation of lysis.

[2] = test system: A. baumannii ATCC19606
How it was run: (§1)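 Compounds were 2-fold serially diluted from a 2 mg/mL stock and plates were incubated statically for 16–20 h at 37 °C. MIC is the lowest concentration preventing visible growth, read after MTT staining.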

[3] = test system: E. coli W3110
How it was run: as §1

[4] = test system: P. aeruginosa PAO1
How it was run: as §1

[5] = test system: Pseudomonas aeruginosa, Klebsiella pneumoniae, Acinetobacter baumannii, Escherichia coli, and methicillin-resistant Staphylococcus aureus; conditions: summary of Table 1
How it was run: as §1

[6] = MH broth pH 7.4, 16–20 h, 37 °C
[7] = supplementary CSV, ranges of Table 1 given as one number

SMILES	EYPC vesicle leakage (%) [1] [%]	MIC A. baumannii ATCC19606 [2, 6] [µg/mL]	MIC A. baumannii ATCC19606 [2, 7] [µg/mL]	MIC E. coli W3110 [3, 6] [µg/mL]	MIC E. coli W3110 [3, 7] [µg/mL]	MIC P. aeruginosa PAO1 [4, 6] [µg/mL]	MIC P. aeruginosa PAO1 [4, 7] [µg/mL]	MIC, span over E. coli, P. aeruginosa, and A. baumannii [5] [µg/mL]
CC(C)C[C@H](NC(=O)[C@H](CC(C)C)NC(=O)[C@H](CC(C)C)NC(=O)[C@@H](CCCCN)NC(=O)[C@@H](CC(C)C)NC(=O)[C@@H](CC(C)C)NC(=O)[C@@H](CCCCN)NC(=O)[C@H](CC(C)C)NC(=O)[C@H](CC(C)C)NC(=O)[C@H](CCCCN)NC(=O)[C@@H](N)CCCCN)C(N)=O [HP13, KKLLkllkLLL]	8	16 to 32	24 (≈ 18.2 µM)	4 to 8	6 (≈ 4.54 µM)	16 to 32	24 (≈ 18.2 µM)	4 to 32
CC(C)C[C@H](NC(=O)[C@H](CC(C)C)NC(=O)[C@@H](CC(C)C)NC(=O)[C@H](CCCCN)NC(=O)[C@@H](CC(C)C)NC(=O)[C@@H](CC(C)C)NC(=O)[C@H](CCCCN)NC(=O)[C@@H](CC(C)C)NC(=O)[C@@H](CC(C)C)NC(=O)[C@H](CCCCN)NC(=O)[C@@H](N)CCCCN)C(N)=O [HP25, KKllKllKlLL]	4	32 (≈ 24.2 µM)	32 (≈ 24.2 µM)	8 to 16	12 (≈ 9.08 µM)	8 to 16	12 (≈ 9.08 µM)	4 to 32

From PMC10258794, “To Fold or Not to Fold: Diastereomeric Optimization of an α-Helical Antimicrobial Peptide” (Journal of Medicinal Chemistry, 2023)
